Data reported in patent US10444229B2, “Method of measuring insulin resistance with fatty acid combustion, and composition used herein” (OTSUKA PHARMACEUTICAL CO., LTD., priority 2013, dated 2019).
Read-outs that look alike come from different tables or passages of the source.

Legend:
[1] = 13C breath test after intravenous administration of 13C-labeled compounds to ZDF rats (Lean and Fatty), fasting or feeding (Experimental Example 2); settings: for Δ13C(‰) of Fatty versus Lean rats: rat, in vivo, iv; for Δ13C(‰) in expired air, fasting state versus feeding state / transition of Δ13C(‰), Lean rats versus Fatty rats: intravenous; for transition of Δ13C(‰), Lean rats versus Fatty rats: ZDF rats, fasting and feeding groups
Text: ZDF Fatty rat is an insulin-resistant test subject animal that has a low sensitivity to insulin, and develops a pathological condition similar to human adult type II diabetes and diabetes complication. In contrast, ZDF Lean rat is a healthy subject animal having normal blood glucose level and normal sensitivity to insulin. Lean and Fatty rats (A) were divided into a fasting group in which the rats were fasted from the previous day, and a feeding group. […] For (a) to (e), expired air was collected from rats (A), and for (f), expired air was collected and rats (B) (each group, n=3).
Expired air was obtained at time points (t minutes) from a time point before the administration of solutions (a) to (f) (0 minutes) to a time point 60 minutes after the administration, and Δ^13C(‰) was determined from ^13CO2 concentration in the expired air using an expired air analysis mass spectrometer (ABCA: product of SerCon).

[2] = ZDF Fatty vs Lean and OLETF vs LETO, 11 weeks
Method: These rats were divided into a fasting group in which the rats were fasted from the previous day, and a feeding group. 1-^13C-sodium palmitate solution prepared in Experimental Example 2 was intravenously administered (2 ml/kg) to each group (each group, n=3).

[3] = fasted Zucker rats
Method: 1-^13C-sodium palmitate was dissolved in hydrous ethanol at about 80° C. at a concentration of 500 μmol/mL.
Rats (male, Zucker rat) were used as experimental animals. The rats that were fasted from the previous day of the test were divided into two groups: oral administration group and intravenous administration group (each group, n=3), and the 1-^13C-sodium palmitate solution (20 μmol/2 mL) prepared in (1) was orally and intravenously administered at a dosage of 2 mL/kg. Expired air was collected at each time point (t minutes) from a time point before administration (0 minutes) to a time point 180 minutes after the administration, and Δ^13C(‰) was determined from the concentration of ^13CO2 in the expired air using an expired air analysis mass spectrometer (ABCA: product of SerCon).
The value of Δ^13C(‰) was determined by measuring a concentration ratio ^13CO2/^12CO2 in the expired air (δ^13C value) at each time point (t minutes) from a time point before the 1-^13C-sodium palmitate administration (0 minutes) to a time point after the administration, and calculating the Δ^13C(‰) value from the difference between the δ^13C value (δ^13Ct) at each point (t) and the δ^13C value before the administration (δ^13Co) (δ^13Ct-δ^13Co) (the same calculation is used in the Experimental Examples below).

[4] = for Δ13C(‰) in expired air, fasting state versus feeding state: intravenous 2 ml/kg
Method: OLETF rats are type II diabetes test subject animal with obesity or/and fatty liver, and LETO rats serve as a control thereof (healthy subjects).
These rats were divided into a fasting group in which the rats were fasted from the previous day, and a feeding group. 1-^13C-sodium palmitate solution prepared in Experimental Example 2 was intravenously administered (2 ml/kg) to each group (each group, n=3). Expired air was collected at time points (t minutes) from a time point before the 1-^13C-sodium palmitate solution administration (0 minutes) to a time point 60 minutes after the administration, and Δ^13C(‰) was determined from the ^13CO2 concentration in the expired air using an expired air analysis mass spectrometer (ABCA: product of SerCon).

[5] = ZDF Fatty rats (insulin-resistant)
[6] = ZDF Lean rats (healthy subjects)

SMILES | Δ13C(‰) of Fatty versus Lean rats [1] | Δ13C(‰) in expired air, fasting state versus feeding state [1, 5] | Δ13C(‰) in expired air, fasting state versus feeding state [1, 6] | transition of Δ13C(‰), Lean rats versus Fatty rats [1] | further results
CCCCCCCCCCC[13C](=O)O [1-^13C-lauric acid] | higher than that of the healthy subjects (Lean) | – | – | – | –
CCCCCCCC/C=C\CCCCCCC[13C](=O)O [1-^13C-oleic acid] | higher than that of the healthy subjects (Lean) | higher in the fasting (hunger) state than in the feeding state | higher in the fasting (hunger) state than in the feeding state | – | –
C[13C](=O)[O-].[Na+] [1-^13C-sodium acetate, reference compound] | – | – | – | little difference between the results of Lean rats and the results of Fatty rats | –
CCCCCCC[13C](=O)[O-].[Na+] [1-^13C-sodium octanoate, reference compound] | – | – | – | little difference between the results of Lean rats and the results of Fatty rats | –
CCCCCCCCCCCCCCC[13C](=O)[O-].[Na+] [1-^13C-sodium palmitate] | higher than that of the healthy subjects (Lean) | higher in the fasting (hunger) state than in the feeding state | higher in the fasting (hunger) state than in the feeding state | – | transition of Δ13C(‰), insulin-nonresistant hyperinsulinemia test subject versus healthy subject ([2]; fasting state): little difference; Δ13C(‰) value, insulin-nonresistant hyperinsulinemia test subject versus healthy subject ([2]; feeding state): significantly lower than that of the healthy subject; excretion in expired air [3]: excreted in expired air as ^13CO2; time of Δ13C(‰) peak in expired air after administration ([3]; intravenous administration, 2 mL/kg of 20 μmol/2 mL): ≤ 10 min; transition of Δ13C(‰) in expired air ([3]; oral administration, 2 mL/kg of 20 μmol/2 mL, 0-180 minutes): little variation among respective measurement times; Δ13C(‰) in expired air, fasting state versus feeding state ([4]; LETO rats (healthy subjects)): higher in the fasting (hunger) state than in the feeding state; Δ13C(‰) in expired air, fasting state versus feeding state ([4]; OLETF rats (insulin-resistant, liver disease)): higher in the fasting (hunger) state than in the feeding state; Δ13C(‰) of OLETF versus LETO rats ([4]; fasting group and feeding group, period until 15 minutes after intravenous administration): higher than that of the healthy subjects (LETO)
